# Patent US20240252651A1, “METHOD OF DELIVERING NUCLEIC ACIDS INTO CELLS” (GUANGZHOU LIDE BIOMEDICINE TECHNOLOGY CO., LTD., priority 2021, published 2024)
# “Also recorded” adds a separate entry of the source.
# System: DC 2.4 cells
# Experiment: Transfection of eGFP-mRNA in DC 2.4 cells (FCM and LSCM)
# Assay type: cell-based, mouse
# Settings: mRNA 0.2 μg/well, material 0.25 to 2 μg/well (dosages per FIG. 7), 24 h, FIG. 7-9
# Description: In this experiment, with eGFP-mRNA as model mRNA, an mRNA transfection efficiency of a cationic lipid analog material in DC 2.4 cells was detected. A specific operation method was as follows:
# DC 2.4 cells were inoculated in a 48-well plate and cultured in an incubator for 12 h; each of different cationic lipid analog materials (0.25 μg/well to 2 μg/well) was mixed with cGFP-expressing mRNA (0.2 μg/well) in 20 μL of a sodium acetate buffer (25 mM, pH 5.2), and resulting mixtures each were allowed to stand for 10 min and then diluted with 230 μL of a Opti-MEM medium to obtain mRNA-loaded complex particle solutions; a medium for the […] were washed once with PBS, and the complex particle solutions were added; and the cells were cultured for 24 h, an mRNA transfection efficiency in cells was observed by FCM and LSCM. A commercial gene transfection reagent Lipofectamine 2000 was adopted as a positive control.
row,SMILES,"mRNA transfection efficiency (eGFP-mRNA), compared with Lipofectamine 2000"
1,CCCCC/C=C\C/C=C\CCCCCCCC(=O)N(CCCN(C)C)C(C(=O)NCCOCCOCCNC(=O)C(C(C)C)N(CCCN(C)C)C(=O)CCCCCCC/C=C\C/C=C\CCCCC)C(C)C (stereo not drawn) [I2R2C18-2A1],high transfection efficiency; also recorded: equivalent to or higher than
2,CCCCCCCCCCCCCCCC(=O)N(CCCN(CC)CC)C(C(=O)NCCOCCOCCNC(=O)C(C(C)C)N(CCCN(CC)CC)C(=O)CCCCCCCCCCCCCCC)C(C)C (stereo not drawn) [I2R3C16A1],high transfection efficiency; also recorded: equivalent to or higher than
3,CCCCCCCCCCCCCCCCCC(=O)N(CCCN(CC)CC)C(C(=O)NCCOCCOCCNC(=O)C(C(C)C)N(CCCN(CC)CC)C(=O)CCCCCCCCCCCCCCCCC)C(C)C (stereo not drawn) [I2R3C18A1],high transfection efficiency; also recorded: equivalent to or higher than
4,CCCCCCCC/C=C\CCCCCCCC(=O)N(CCC1CCCN1C)C(C(=O)NCCOCCOCCNC(=O)C(C(C)C)N(CCC1CCCN1C)C(=O)CCCCCCC/C=C\CCCCCCCC)C(C)C (stereo not drawn) [I2R11C18-1A1],high transfection efficiency; also recorded: equivalent to or higher than
5,CCCCC/C=C\C/C=C\CCCCCCCC(=O)N(CCC1CCCN1C)C(C(=O)NCCOCCOCCNC(=O)C(C(C)C)N(CCC1CCCN1C)C(=O)CCCCCCC/C=C\C/C=C\CCCCC)C(C)C (stereo not drawn) [I2R11C18-2A1],high transfection efficiency; also recorded: equivalent to or higher than
6,CCCCCCCCCCCCCCCCCC(=O)N(CCC1CCCN1C)C(C(=O)NCCOCCOCCNC(=O)C(C(C)C)N(CCC1CCCN1C)C(=O)CCCCCCCCCCCCCCCCC)C(C)C (stereo not drawn) [I2R11C18A1],high transfection efficiency; also recorded: equivalent to or higher than

# System: A549 cells (A549-Luc)
# Experiment: siRNA transfection, luciferase gene silencing in A549-Luc cells
# Assay type: cell-based, human
# Settings: final siRNA 100 nM, material 0.5 to 3 μg/well, 48 h, FIG. 10
# Description: In this experiment, with I2R2C18-1A1, I2R3C18-1A1, I2R2C18-2A1, and I2R3C18-2A1 as representative cationic lipid analog materials, siRNA transfection and delivery effects of the cationic lipid analog materials were detected in A549 cells (A549-Luc). A specific operation method was as follows:
# Luciferase-expressing A549 cells (A549-Luc) were inoculated in a 96-well plate and cultured in an incubator for 12 h; each of different materials (0.5 μg/well to 3 μg/well) was mixed with siRNA in 40 μL of a sodium acetate buffer (25 mM, pH 5.2), and resulting mixtures each were allowed to stand for 10 min and then diluted with 460 μL of an Opti-MEM medium to obtain siRNA-loaded complex particle solutions (final siRNA concentration was 100 nM); a medium for the A549-Luc cells in the plate was removed, then the A549-Luc cells were washed once with PBS, and the complex particle solutions each were added in a volume of 125 μL; the cells were cultured for 48 h, then a resulting culture supernatant was discarded, and the cells were fully lysed; and a substrate was added at 50 μl/well, and an expression level of luciferase was detected by a multi-mode microplate reader.
SMILES,gene silencing efficiency as a function of material dosage,"siRNA transfection, silencing of the luciferase reporter gene"
CCCCC/C=C\C/C=C\CCCCCCCC(=O)N(CCCN(C)C)C(C(=O)NCCOCCOCCNC(=O)C(C(C)C)N(CCCN(C)C)C(=O)CCCCCCC/C=C\C/C=C\CCCCC)C(C)C (stereo not drawn) [I2R2C18-2A1],increases with the increase of a dosage,efficient gene silencing; also recorded: can transfect siRNA into cells to specifically silence the expression of the luciferase reporter gene

# System: Hela cells
# Experiment: Transfection of luciferase-expressing plasmid DNA in HeLa cells (luciferase expression)
# Assay type: cell-based, human
# Settings: plasmid DNA 0.5 μg, 24 h, luciferase expression level, FIG. 5
# Description: In this example, with luciferase-expressing plasmid DNA as a reporter gene, a gene transfection efficiency of a cationic lipid analog material in HeLa cells was detected. A specific operation method was as follows: Hela cells were inoculated in a 96-well plate and cultured in an incubator for 12 h; each of different cationic lipid analog materials was mixed with luciferase-expressing plasmid DNA (0.5 μg) in 40 μL of a sodium acetate buffer (25 mM, pH 5.2), and resulting mixtures each were allowed to stand for 10 min and then diluted with 460 μL of an Opti-MEM medium to obtain plasmid DNA-loaded cationic lipid analog complex particle solutions; a medium for the Hela cells in the plate was removed, then the Hela cells were washed once with PBS, and the complex particle solutions were added in a volume of 125 μL; the cells were cultured for 24 h, then a resulting culture supernatant was discarded, and the cells were fully lysed; and a substrate was added at 50 μl/well, and an expression level of luciferase was detected by a multi-mode microplate reader.
row,SMILES,"transfection efficiency of luciferase-expressing plasmid DNA, compared with Lipofectamine 2000"
1,CCCCC/C=C\C/C=C\CCCCCCCC(=O)N(CCCN(C)C)C(C(=O)NCCOCCOCCNC(=O)C(C(C)C)N(CCCN(C)C)C(=O)CCCCCCC/C=C\C/C=C\CCCCC)C(C)C (stereo not drawn) [I2R2C18-2A1],equivalent to or higher than
2,CCCCCCCCCCCCCCCC(=O)N(CCCN(CC)CC)C(C(=O)NCCOCCOCCNC(=O)C(C(C)C)N(CCCN(CC)CC)C(=O)CCCCCCCCCCCCCCC)C(C)C (stereo not drawn) [I2R3C16A1],equivalent to or higher than
3,CCCCCCCCCCCCCCCCCC(=O)N(CCCN(CC)CC)C(C(=O)NCCOCCOCCNC(=O)C(C(C)C)N(CCCN(CC)CC)C(=O)CCCCCCCCCCCCCCCCC)C(C)C (stereo not drawn) [I2R3C18A1],equivalent to or higher than
4,CCCCC/C=C\C/C=C\CCCCCCCC(=O)N(CCC1CCCN1C)C(C(=O)NCCOCCOCCNC(=O)C(C(C)C)N(CCC1CCCN1C)C(=O)CCCCCCC/C=C\C/C=C\CCCCC)C(C)C (stereo not drawn) [I2R11C18-2A1],equivalent to or higher than

# System: Hela cells
# Experiment: Transfection of GFP-expressing plasmid DNA in Hela cells (flow cytometer)
# Assay type: cell-based, human
# Settings: plasmid DNA 0.5 μg/well, material 0.25 to 8 μg/well (dosages per FIG. 4), 24 h
# Description: In this experiment, with GFP-expressing plasmid DNA as a reporter gene, a gene transfection efficiency of a cationic lipid analog material in Hela cells was detected. A specific method was as follows:
# Hela cells were inoculated in a 24-well plate and cultured in an incubator for 12 h; each of different cationic lipid analog materials (0.25 μg/well to 8 μg/well) was mixed with GFP-expressing plasmid DNA (0.5 μg/well) in 40 μL of a sodium acetate buffer (25 mM, pH 5.2), and resulting mixtures each were allowed to stand for 10 min and then diluted with 460 μL of an Opti-MEM medium to obtain plasmid DNA-loaded cationic lipid analog complex particle solutions; a medium for the Hela cells in the plate was removed, then the HeLa cells were washed once with PBS, and the complex particle solutions were added; and the cells were cultured for 24 h, and then a plasmid DNA transfection efficiency in cells was analyzed by a flow cytometer. A commercial gene transfection reagent Lipofectamine 2000 was adopted as a positive control.
row,SMILES,"transfection efficiency of GFP-expressing plasmid DNA, compared with commercial transfection reagent Lipofectamine 2000"
1,CCCCC/C=C\C/C=C\CCCCCCCC(=O)N(CCCN(C)C)C(C(=O)NCCOCCOCCNC(=O)C(C(C)C)N(CCCN(C)C)C(=O)CCCCCCC/C=C\C/C=C\CCCCC)C(C)C (stereo not drawn) [I2R2C18-2A1],reaches or is higher than; also recorded: equivalent to or higher than
2,CCCCCCCCCCCCCCCC(=O)N(CCCN(CC)CC)C(C(=O)NCCOCCOCCNC(=O)C(C(C)C)N(CCCN(CC)CC)C(=O)CCCCCCCCCCCCCCC)C(C)C (stereo not drawn) [I2R3C16A1],reaches or is higher than; also recorded: equivalent to or higher than
3,CCCCCCCCCCCCCCCCCC(=O)N(CCCN(CC)CC)C(C(=O)NCCOCCOCCNC(=O)C(C(C)C)N(CCCN(CC)CC)C(=O)CCCCCCCCCCCCCCCCC)C(C)C (stereo not drawn) [I2R3C18A1],reaches or is higher than; also recorded: equivalent to or higher than
4,CCCCCCCC/C=C\CCCCCCCC(=O)N(CCC1CCCN1C)C(C(=O)NCCOCCOCCNC(=O)C(C(C)C)N(CCC1CCCN1C)C(=O)CCCCCCC/C=C\CCCCCCCC)C(C)C (stereo not drawn) [I2R11C18-1A1],reaches or is higher than; also recorded: equivalent to or higher than
5,CCCCC/C=C\C/C=C\CCCCCCCC(=O)N(CCC1CCCN1C)C(C(=O)NCCOCCOCCNC(=O)C(C(C)C)N(CCC1CCCN1C)C(=O)CCCCCCC/C=C\C/C=C\CCCCC)C(C)C (stereo not drawn) [I2R11C18-2A1],reaches or is higher than; also recorded: equivalent to or higher than
6,CCCCCCCCCCCCCCCCCC(=O)N(CCC1CCCN1C)C(C(=O)NCCOCCOCCNC(=O)C(C(C)C)N(CCC1CCCN1C)C(=O)CCCCCCCCCCCCCCCCC)C(C)C (stereo not drawn) [I2R11C18A1],reaches or is higher than; also recorded: equivalent to or higher than
